In the first test the test system is Breast cell lines: MCF-7, BT-20, 435. Briefly: Viability assay (Trypan blue exclusion), breast tumor cell lines. To be noted: 2.5 mM, 72 hours, read-out: % Death, tumor cell type Breast. It counts as cell-based. As for the experimental part:
(§1) The effect of the Z-styryl sulfones on normal fibroblasts and on tumor cells of breast, prostate and ovarian origin was examined utilizing the following cell lines: breast tumor cell lines: MCF-7, BT-20 and 435; prostate tumor cell lines LnCaP and DU-145; and ovarian tumor cell lines OVCAR and SKOV3. NIH/3T3 and HFL cells, which are normal murine and human fibroblasts, respectively, were also tested. LnCap is an androgen-dependent prostate tumor cell line. MCF-7 is an estrogen-responsive breast tumor cell line, while BT-20 and 435 are estrogen-unresponsive breast tumor cell lines. MCF-7, BT-20 and 435 were grown in Dulbecco's modified Eagle's medium (DMEM) containing 10% fetal bovine serum supplemented with penicillin and streptomycin. LnCaP and Du145 were cultured in RPMI with 10% fetal bovine serum containing penicillin and streptomycin. NIH3T3 and HFL cells were grown in DMEM containing 10% calf serum supplemented with penicillin and streptomycin. All cell cultures were maintained at 37° C. in a humidified atmosphere of 5% CO2.
(§2) Cells were treated with test compound at 2.5 mM concentration and cell viability was determined after 72 hours by the Trypan blue exclusion method.
(§3) Activity for each compound is reported as a range of cell induced death (% Death) with the lowest activity in the range of 10-20% and the highest being above 75%.
As to `O=S(=O)(/C=C\c1ccc(Br)cc1)Cc1ccc(F)cc1` [Example 16, Z-4-Bromostyryl 4-Fluorobenzylsulfone], the cytotoxicity at 2500 µM lay in the range of 60 to 70%.
Still for that read-out and setting: the figure for `O=S(=O)(/C=C\c1ccc(F)cc1)Cc1ccc(F)cc1` [Example 12, Z-4-Fluorostyryl 4-Fluorobenzylsulfone] is 40 to 50%; for `Cc1ccc(/C=C\S(=O)(=O)Cc2ccccc2)cc1` [Example 17, Z-4-Methylstyryl Benzylsulfone] it is 20 to 25%.
`O=S(=O)(/C=C\c1ccc(F)cc1)Cc1ccccc1Cl` [Example 11, Z-4-Fluorostyryl 2-Chlorobenzylsulfone]: the cytotoxicity at 2500 µM lay within 20 to 25%.
Take `O=S(=O)(/C=C\c1ccc(Cl)cc1)Cc1ccc(Cl)cc1` [Example 6, Z-4-Chlorostyryl 4-Chlorobenzylsulfone]: the cytotoxicity at 2500 µM was in the range of 60 to 70%.
Same read-out and setting: the figure for `Cc1ccc(/C=C\S(=O)(=O)Cc2ccc(F)cc2)cc1` [Example 20, Z-4-Methylstyryl 4-Fluorobenzylsulfone] is 20 to 25%; for `O=S(=O)(/C=C\c1ccc(Br)cc1)Cc1ccc(Cl)cc1` [Example 14, Z-4-Bromostyryl 4-Chlorobenzylsulfone] it is greater than 75%; for `O=S(=O)(/C=C\c1ccc(Br)cc1)Cc1ccccc1` [Example 13, Z-4-Bromostyryl Benzylsulfone] it is 20 to 25%.
On to `O=S(=O)(/C=C\c1ccc(Cl)cc1)Cc1ccccc1` [Example 5, Z-4-Chlorostyryl Benzylsulfone], for which the cytotoxicity at 2500 µM was in the range of 20 to 25%.
Still for that read-out and setting: the figure for `O=S(=O)(/C=C\c1ccc(Cl)cc1)Cc1ccc(F)cc1` [Example 8, Z-4-Chlorostyryl 4-Fluorobenzylsulfone] is greater than 75%.

A further test deals with Prostate cell lines: LnCaP, DU-145. Nature of the test: Viability assay (Trypan blue exclusion), prostate tumor cell lines. It counts as cell-based. To be noted: 2.5 mM, 72 hours, read-out: % Death, tumor cell type Prostate. The protocol: as §1, §2, §3
On to `O=S(=O)(/C=C\c1ccc(Br)cc1)Cc1ccc(F)cc1` [Example 16, Z-4-Bromostyryl 4-Fluorobenzylsulfone], for which the cytotoxicity at 2500 µM fell in the range of 60 to 70%.
Take `O=S(=O)(/C=C\c1ccc(F)cc1)Cc1ccc(F)cc1` [Example 12, Z-4-Fluorostyryl 4-Fluorobenzylsulfone]: the cytotoxicity at 2500 µM lay in the range of 40 to 50%.
On the same count and under the same terms, the figure for `Cc1ccc(/C=C\S(=O)(=O)Cc2ccccc2)cc1` [Example 17, Z-4-Methylstyryl Benzylsulfone] is 20 to 25%; for `O=S(=O)(/C=C\c1ccc(F)cc1)Cc1ccccc1Cl` [Example 11, Z-4-Fluorostyryl 2-Chlorobenzylsulfone] it is 20 to 25%; for `O=S(=O)(/C=C\c1ccc(Cl)cc1)Cc1ccc(Cl)cc1` [Example 6, Z-4-Chlorostyryl 4-Chlorobenzylsulfone] it is 60 to 70%.
As for `Cc1ccc(/C=C\S(=O)(=O)Cc2ccc(F)cc2)cc1` [Example 20, Z-4-Methylstyryl 4-Fluorobenzylsulfone], the cytotoxicity at 2500 µM was 20 to 25%.
`O=S(=O)(/C=C\c1ccc(Br)cc1)Cc1ccc(Cl)cc1` [Example 14, Z-4-Bromostyryl 4-Chlorobenzylsulfone]: the cytotoxicity at 2500 µM is greater than 75%.
The same measure, in the same setting: the figure for `O=S(=O)(/C=C\c1ccc(Br)cc1)Cc1ccccc1` [Example 13, Z-4-Bromostyryl Benzylsulfone] is 20 to 25%; for `O=S(=O)(/C=C\c1ccc(Cl)cc1)Cc1ccccc1` [Example 5, Z-4-Chlorostyryl Benzylsulfone] it is 20 to 25%.
Take `O=S(=O)(/C=C\c1ccc(Cl)cc1)Cc1ccc(F)cc1` [Example 8, Z-4-Chlorostyryl 4-Fluorobenzylsulfone]: the cytotoxicity at 2500 µM is greater than 75%.

For the next test, the system named is Ovarian cell lines: OVCAR, SKOV3. Briefly: Viability assay (Trypan blue exclusion), ovarian tumor cell lines. Conditions: Homo sapiens, 2.5 mM, 72 hours, read-out: % Death, tumor cell type Ovarian. The class given is cell-based. The protocol: as §1, §2, §3
`O=S(=O)(/C=C\c1ccc(Br)cc1)Cc1ccc(F)cc1` [Example 16, Z-4-Bromostyryl 4-Fluorobenzylsulfone]: the cytotoxicity at 2500 µM lay within 60 to 70%.
On the same count and under the same terms, in the case of `O=S(=O)(/C=C\c1ccc(F)cc1)Cc1ccc(F)cc1` [Example 12, Z-4-Fluorostyryl 4-Fluorobenzylsulfone] it was 40 to 50%; in that of `Cc1ccc(/C=C\S(=O)(=O)Cc2ccccc2)cc1` [Example 17, Z-4-Methylstyryl Benzylsulfone], 20 to 25%; in that of `O=S(=O)(/C=C\c1ccc(F)cc1)Cc1ccccc1Cl` [Example 11, Z-4-Fluorostyryl 2-Chlorobenzylsulfone], 20 to 25%.
Same read-out and setting: the figure for `O=S(=O)(/C=C\c1ccc(Cl)cc1)Cc1ccc(Cl)cc1` [Example 6, Z-4-Chlorostyryl 4-Chlorobenzylsulfone] is 60 to 70%; for `Cc1ccc(/C=C\S(=O)(=O)Cc2ccc(F)cc2)cc1` [Example 20, Z-4-Methylstyryl 4-Fluorobenzylsulfone] it is 20 to 25%; for `O=S(=O)(/C=C\c1ccc(Br)cc1)Cc1ccc(Cl)cc1` [Example 14, Z-4-Bromostyryl 4-Chlorobenzylsulfone] it is greater than 75%.
For the compound `O=S(=O)(/C=C\c1ccc(Br)cc1)Cc1ccccc1` [Example 13, Z-4-Bromostyryl Benzylsulfone], the cytotoxicity at 2500 µM is 20 to 25%.
Regarding `O=S(=O)(/C=C\c1ccc(Cl)cc1)Cc1ccccc1` [Example 5, Z-4-Chlorostyryl Benzylsulfone], the cytotoxicity at 2500 µM was 20 to 25%.
For `O=S(=O)(/C=C\c1ccc(Cl)cc1)Cc1ccc(F)cc1` [Example 8, Z-4-Chlorostyryl 4-Fluorobenzylsulfone], the cytotoxicity at 2500 µM was greater than 75%.

In the next test the test system is Lung cell lines: N417, H157. Nature of the test: Viability assay (Trypan blue exclusion), lung tumor cell lines. The class given is cell-based. To be noted: 2.5 mM, 72 hours, read-out: % Death, tumor cell type Lung. The protocol: as §2, §3
(§4) The procedure of Example 22 was followed for certain of the (Z)-benzylsulfones, substituting the following cancer cell lines: lung, N417 and H157; renal, CAKI-1 and CAKI-2; glioma, U87 and SW1088.
Regarding `O=S(=O)(/C=C\c1ccc(Br)cc1)Cc1ccc(F)cc1` [Example 16, Z-4-Bromostyryl 4-Fluorobenzylsulfone], the cytotoxicity at 2500 µM was 60 to 70%.
As for `O=S(=O)(/C=C\c1ccc(F)cc1)Cc1ccc(F)cc1` [Example 12, Z-4-Fluorostyryl 4-Fluorobenzylsulfone], the cytotoxicity at 2500 µM fell in the range of 40 to 50%.
The same measure, in the same setting: the figure for `O=S(=O)(/C=C\c1ccc(F)cc1)Cc1ccccc1Cl` [Example 11, Z-4-Fluorostyryl 2-Chlorobenzylsulfone] is 20 to 25%; for `O=S(=O)(/C=C\c1ccc(Cl)cc1)Cc1ccc(Cl)cc1` [Example 6, Z-4-Chlorostyryl 4-Chlorobenzylsulfone] it is 60 to 70%.
As for `Cc1ccc(/C=C\S(=O)(=O)Cc2ccc(F)cc2)cc1` [Example 20, Z-4-Methylstyryl 4-Fluorobenzylsulfone], the cytotoxicity at 2500 µM lay in the range of 20 to 25%.
With `O=S(=O)(/C=C\c1ccc(Br)cc1)Cc1ccc(Cl)cc1` [Example 14, Z-4-Bromostyryl 4-Chlorobenzylsulfone], the cytotoxicity at 2500 µM was greater than 75%.
The same measure, in the same setting: in the case of `O=S(=O)(/C=C\c1ccc(Cl)cc1)Cc1ccccc1` [Example 5, Z-4-Chlorostyryl Benzylsulfone] it was 20 to 25%; in that of `O=S(=O)(/C=C\c1ccc(Cl)cc1)Cc1ccc(F)cc1` [Example 8, Z-4-Chlorostyryl 4-Fluorobenzylsulfone], greater than 75%.

In the next test the test system is Renal cell lines: CAKI-1, CAKI-2. Briefly: Viability assay (Trypan blue exclusion), renal tumor cell lines. Conditions: 2.5 mM, 72 hours, read-out: % Death, tumor cell type Renal. The class given is cell-based. As for the experimental part:
as §2, §3, §4
As to `O=S(=O)(/C=C\c1ccc(Br)cc1)Cc1ccc(F)cc1` [Example 16, Z-4-Bromostyryl 4-Fluorobenzylsulfone], the cytotoxicity at 2500 µM fell in the range of 60 to 70%.
`O=S(=O)(/C=C\c1ccc(F)cc1)Cc1ccc(F)cc1` [Example 12, Z-4-Fluorostyryl 4-Fluorobenzylsulfone]: the cytotoxicity at 2500 µM was 40 to 50%.
In the case of `O=S(=O)(/C=C\c1ccc(F)cc1)Cc1ccccc1Cl` [Example 11, Z-4-Fluorostyryl 2-Chlorobenzylsulfone], the cytotoxicity at 2500 µM was 20 to 25%.
`O=S(=O)(/C=C\c1ccc(Cl)cc1)Cc1ccc(Cl)cc1` [Example 6, Z-4-Chlorostyryl 4-Chlorobenzylsulfone]: the cytotoxicity at 2500 µM lay within 60 to 70%.
Regarding `Cc1ccc(/C=C\S(=O)(=O)Cc2ccc(F)cc2)cc1` [Example 20, Z-4-Methylstyryl 4-Fluorobenzylsulfone], the cytotoxicity at 2500 µM lay within 20 to 25%.
In the case of `O=S(=O)(/C=C\c1ccc(Br)cc1)Cc1ccc(Cl)cc1` [Example 14, Z-4-Bromostyryl 4-Chlorobenzylsulfone], the cytotoxicity at 2500 µM was greater than 75%.
In the case of `O=S(=O)(/C=C\c1ccc(Cl)cc1)Cc1ccccc1` [Example 5, Z-4-Chlorostyryl Benzylsulfone], the cytotoxicity at 2500 µM is 20 to 25%.
For `O=S(=O)(/C=C\c1ccc(Cl)cc1)Cc1ccc(F)cc1` [Example 8, Z-4-Chlorostyryl 4-Fluorobenzylsulfone], the cytotoxicity at 2500 µM was greater than 75%.

The next test concerns Glioma cell lines: U87, SW1088. Briefly: Viability assay (Trypan blue exclusion), glioma cell lines. It counts as cell-based. To be noted: Homo sapiens, 2.5 mM, 72 hours, read-out: % Death, tumor cell type Glioma. The protocol:
as §2, §3, §4
Consider `O=S(=O)(/C=C\c1ccc(Br)cc1)Cc1ccc(F)cc1` [Example 16, Z-4-Bromostyryl 4-Fluorobenzylsulfone], for which the cytotoxicity at 2500 µM was 60 to 70%.
Regarding `O=S(=O)(/C=C\c1ccc(F)cc1)Cc1ccc(F)cc1` [Example 12, Z-4-Fluorostyryl 4-Fluorobenzylsulfone], the cytotoxicity at 2500 µM was in the range of 40 to 50%.
Same read-out and setting: in the case of `O=S(=O)(/C=C\c1ccc(F)cc1)Cc1ccccc1Cl` [Example 11, Z-4-Fluorostyryl 2-Chlorobenzylsulfone] it was 20 to 25%; in that of `O=S(=O)(/C=C\c1ccc(Cl)cc1)Cc1ccc(Cl)cc1` [Example 6, Z-4-Chlorostyryl 4-Chlorobenzylsulfone], 60 to 70%; in that of `Cc1ccc(/C=C\S(=O)(=O)Cc2ccc(F)cc2)cc1` [Example 20, Z-4-Methylstyryl 4-Fluorobenzylsulfone], 20 to 25%.
For the compound `O=S(=O)(/C=C\c1ccc(Br)cc1)Cc1ccc(Cl)cc1` [Example 14, Z-4-Bromostyryl 4-Chlorobenzylsulfone], the cytotoxicity at 2500 µM is greater than 75%.
In the case of `O=S(=O)(/C=C\c1ccc(Cl)cc1)Cc1ccccc1` [Example 5, Z-4-Chlorostyryl Benzylsulfone], the cytotoxicity at 2500 µM fell in the range of 20 to 25%.
Same read-out and setting: the figure for `O=S(=O)(/C=C\c1ccc(Cl)cc1)Cc1ccc(F)cc1` [Example 8, Z-4-Chlorostyryl 4-Fluorobenzylsulfone] is greater than 75%.

Source of the values: US6576675B1, “Z-styryl sulfone anticancer agents” (Temple University - Of the Commonwealth System of Higher …, priority 1999, dated 2003).
